Data: US8580776B2, “Compositions and methods for treating neurodegenerating diseases” (The Board of Trustees of the University of Illinois, priority 2007, dated 2013)

Columns and labels:
[1] = test system: astrocyte marker GFAP; experiment: Glial activation: GFAP staining of brain sections; format: in vivo, mice
Method: The effects of DSP4 treatment on glial activation were assessed in hippocampus and frontal cortex by staining for microglial marker Mac1 and astrocyte marker GFAP (FIG. 3). Sections from vehicle and DSP4 treated H6 mice brains were stained with antibodies directed against Mac1 to assess microglial activation (FIG. 3A-C); and GFAP to assess astrocyte activation (FIG. 3D-F). […] FIGS. 3G-3I show quantitative analysis of Mac1 (FIG. 3G-3H) and GFAP staining (FIG. 31).
Hemibrains were fixed overnight in 4% paraformaldehyde in 0.1M phosphate buffer, then overnight in 10% sucrose in 0.1M phosphate buffer, and then frozen in isopentane at −30° C. Serial sections (35 um thick) were prepared on a cryostat, and stored in cryoprotective solution (0.1M phosphate buffer: ethyleneglycol:glycerol 30:40:30) at −20° C. […] Staining was quantified using software provided by the manufacturer (Zeiss AxioVision). GFAP and Mac1 staining was quantified in 3 different areas on each of 4 serial sections for each animal (n=3 or 4 for Mac1; n=7 or 9 for GFAP staining) The data was average area stained per section (as % total area) from DSP4-treated (n=3 for Mac1; n=7 for GFAP) and vehicle-treated (n=4 for Mac1; n=9 for GFAP) mice. […]

[2] = test system: TgAPP H6 mice; experiment: Amyloid plaque burden (Aβ1-42 staining) in brain sections of TgAPP H6 mice; format: in vivo
Source text: Transgenic mice (H6) overexpressing the Indiana V717F mutation of human APP under control of the PDGFR promoter (Mucke et al., 2000, “High-level neuronal expression of abeta 1-42 in wild-type human amyloid protein precursor transgenic mice: synaptotoxicity without plaque formation,” J Neurosci 20:4050-8) were obtained from Dr. Lennart Mucke (J. David Gladstone Institute, San Francisco, Calif.). Male hemizygous H6 mice were bred to wild type C57BL6 (Charles River Breeding) females to obtain hemizygous progeny. Genotype was verified by PCR analysis of tail DNA using the forward primer 5′-GGTGAGTTTGTAAGTGATGCC-3′ (SEQ ID NO:1) and reverse primer 5′-TCTTCTTCTTCCACCTCAGC-3′ (SEQ ID NO:2). Animals were housed in groups of four under standard conditions with full access to food and water.
Hemizygous male H6 mice (aged 3 to 4 months) were injected with vehicle or with DSP4 (5 mg per kg; i.p., every two weeks) and all mice were sacrificed at age 9 months. This protocol (a low, chronic dose) results in 70% loss of LC noradrenergic neurons. Brains were dissected, the left hemispheres were fast frozen in isopentane at −30° C. and stored at −80° C. for subsequent protein and RNA studies. The right hemispheres were processed for immunohistochemistry.
TgAPP H6 mice were treated with DSP4 (5 mg/kg every two weeks) beginning at age 3-4 months, and brain sections analyzed at age 9 months (FIGS. 1A-1B). Hemibrains were fixed overnight in 4% paraformaldehyde in 0.1M phosphate buffer, then overnight in 10% sucrose in 0.1M phosphate buffer, and then frozen in isopentane at −30° C. Serial sections (35 um thick) were prepared on a cryostat, and stored in cryoprotective solution (0.1M phosphate buffer: ethyleneglycol: glycerol 30:40:30) at −20° C. For Aβ1-42 staining, sections were treated with formic acid (95%, 3 min), incubated overnight at 4° C. with primary antibody directed against Aβ1-42 (1:4000 dilution, Calbiochem FCA3542 rabbit polytonal antibody raised against a synthetic peptide corresponding to amino acids 706-713 of human APP), washed, then incubated with anti-rabbit biotinylated secondary antibody (Vector BA-1000, diluted 1:400) and visualized using an ABC kit (Vector). For quantification of Aβ plaques, for each animal (n=6 vehicle treated and n=6 DSP4 treated mice) 8 stained, serial sections separated by 210 μm and spanning approximately 1.5 mm between Bregma points −1.50 mm to −3.00 mm were mounted onto glass slides and imaged with a Zeiss Axiophot 2 microscope, equipped with an Axiocam B&W MRm camera. Sections were viewed at 100× using a 10× objective, and the average plaque number and % area stained (relative to the total section area of 21 mm^2) per section were determined. The threshold of brightness intensity (range black=0 to white=255) used for selection of plaques was established by determining average pixel intensity from 3 areas devoid of staining, and then adjusting that value to maximize inclusion of all visibly-stained plaques while minimizing inclusion of background areas. This value was used for all sections (all stained at the same time). For all sections, visual inspection following automated counting was done to ensure exclusion of meninges, ventricular space, or other artifacts.
Representative sections from vehicle (FIG. 1A, containing 19 plaques) and DSP4 treated (B, containing 64 plaques) mice are shown in FIG. 1. Plaque burden (number and area stained) was quantified using Axiovision 4.5 Measurement Wizard software. Sections were viewed at 100× using a 10× objective, and the average plaque number (FIG. 1C) and % area stained (FIG. 1D, relative to the total section area of 21 mm^2) per section determined (n=8 sections per animal). The data was analyzed by two-tailed t-test assuming equal variances; *, P <0.05. The relative size distribution for all plaques detected in vehicle (n=626) and DSP4 treated (n=3009) brain sections is shown (FIG. 1E). […]

CCN(CCCl)Cc1ccccc1Br [DSP4, N-(2-chloroethyl)-N-ethyl-2-bromobenzylamine]
GFAP staining, frontal cortex ([1]; low levels of staining, not shown): little effect
increase in GFAP staining, hippocampus ([1]; versus vehicle, significant): approximately 68%
average plaque number ([2]; DSP4 5 mg/kg every two weeks, age 9 months, vehicle 13.5±3): 62.7±18 per section
average area stained ([2]; DSP4 5 mg/kg every two weeks, age 9 months, vehicle 1,810±464): 11,100±3,000 μm^2
plaques >5,000 μm^2 out of all plaques detected ([2]; DSP4 sections, vehicle 1/626): 16/3009
relative plaque size distribution ([2]; age 9 months): did not significantly alter
increase in plaque number ([2]; age 9 months, versus vehicle): 5 fold
area stained as % total sectional area ([2]; age 9 months, vehicle 0.008%): 0.051%
plaque appearance in non-transgenic wild type littermates ([2]; data not shown): did not induce plaque appearance
average plaque size ([2]; n=3009 plaques, vehicle 135±18, increase not statistically significant): 174±8 μm^2
plaques with size greater than 7,000 μm^2 ([2]; out of 3009 counted): 13 out of 3009
plaques in representative section ([2]; representative section FIG. 1B, vehicle 19): 64 plaques
